# Test results as given in patent US20250338850A1, “COMPOSITION AND METHOD FOR CONTROLLING WEEDS IN TURFGRASS” (SYNGENTA CROP PROTECTION AG, priority 2022, published 2025).
# Experiments:
# [1] = tested on: St Augustinegrass variety 'Classic'; assay: Turfgrass injury trial on St Augustinegrass variety 'Classic'; assay type: in vivo
# Text: In a trial conducted on St Augustinegrass variety ‘Classic’, trifloxysulfuron (TSS) (Monument 75 WDG) was applied at 28 g ai/ha with and without metcamifen applied at 30, 75 and 150 g ai/ha. Two applications were applied on a 30-day interval (initial treatment and second treatment).
# kikuyugrass = assay: Turfgrass injury trial on kikuyugrass; assay type: in vivo
# Text: In a kikuyugrass trial, trifloxysulfuron (TSS) (Monument 75 WDG) was applied solo at 28 g ai/ha and compared to a mixture of TSS and metcamifen (MET). The TSS-MET mixture contains trifloxysulfuron and meticamifen at a ratio of 20 to 75 g. Both Monument and the TSS-MET mixture were applied at 28 g ai/ha TSS.
SMILES,"injury at all rating dates ([1]; TSS 28 g ai/ha with metcamifen at 30, 75 and 150 g ai/ha, all rating dates)","trifloxysulfuron safening ([1]; metcamifen 30, 75 and 150 g ai/ha with TSS 28 g ai/ha)",trifloxysulfuron safening (kikuyugrass; TSS-MET mixture at 28 g ai/ha TSS),"injury, 9 DAIT (Initial Treatment) ([1]; TSS 28 g ai/ha, 9 days after the initial application) [%]","injury, 17 DAIT ([1]; TSS 28 g ai/ha, 17 days after the initial application) [%]","injury, 24 DAIT ([1]; TSS 28 g ai/ha, 24 days after the initial application) [%]","injury, 30 DAIT (Second Treatment) ([1]; TSS 28 g ai/ha, 30 days after the initial application) [%]","injury, 41 DAIT ([1]; TSS 28 g ai/ha, two applications, 30-day interval, 41 days after the initial application) [%]","injury, 51 DAIT ([1]; TSS 28 g ai/ha, two applications, 30-day interval, 51 days after the initial application) [%]","injury, 7DAA-2 (kikuyugrass; 28 g ai/ha TSS, 7 days after application 2) [a %]","injury, 14DAA-1 (kikuyugrass; 28 g ai/ha TSS, 14 days after application 1) [a %]","injury, 14 DAA-2 (kikuyugrass; 28 g ai/ha TSS, 14 days after application 2) [a %]","injury, 21 DAA-1 (kikuyugrass; 28 g ai/ha TSS, 21 days after application 1) [a %]","injury, 21 DAA-2 (kikuyugrass; 28 g ai/ha TSS, 21 days after application 2) [a %]","injury, 28 DAA-1 (kikuyugrass; 28 g ai/ha TSS, 28 days after application 1) [a %]","injury, 28 DAA-2 (kikuyugrass; 28 g ai/ha TSS, 28 days after application 2) [a %]","injury (kikuyugrass; trifloxysulfuron solo 28 g ai/ha, two applications on a 28-day interval) [%]"
"CNC(=O)Nc1ccc(S(=O)(=O)NC(=O)c2ccccc2OC)cc1 [Metcamifen, 2-Methoxy-N-[[4-[[(methylamino)carbonyl]amino]phenyl]sulfonyl]benzamide]",Less than 5%,almost complete trifloxysulfuron safening,almost complete trifloxysulfuron safening,–,–,–,–,–,–,–,–,–,–,–,–,–,–
"COc1cc(OC)nc(NC(=O)NS(=O)(=O)c2ncccc2OCC(F)(F)F)n1 [TSS (Monument), N-[[(4,6-dimethoxy-2-pyrimidinyl)amino]carbonyl]-3-(2,2,2-trifluoroethoxy)-2-pyridinesulfonamide]",–,–,–,71,85,98,85,80,81,40,22.5,40,37.4,40,34.9,32.5,40
